Data reported in patent US20240245677A1, “SELECTED COMPOUNDS FOR TARGETED DEGRADATION OF BRD9” (C4 THERAPEUTICS, INC., priority 2021, published 2024).
Values after ≈ are worked out from the molar mass of the structure shown. Where two headings read alike, the source gives them in different places.

Key:
[1] = Mouse Hepatocyte Stability Assay; format: in vitro ADME; settings: CD-1, cryopreserved hepatocytes
Protocol: The metabolic stability of Compound 1 was evaluated using cryopreserved hepatocytes from mice, rats, dogs, cynomolgus monkeys, and humans.
50 μL of 1 mM intermediate solutions for each test compound was prepared by adding 5 μL of 10 mM stock solution to 45 μL of a 1:1 mixture of water and acetonitrile. A 2 μM working stocks for each test compound were prepared in incubation media, InvitroGRO™ KHB (Bio IVT, Westbury, NY, USA), by adding 2 μL of 1 mM intermediate stock to 998 μL of incubation media.
To thaw the hepatocytes, InvitroGRO™ HT thawing medium (BioIVT, Westbury, NY, USA) was prewarmed to 37° C., and 48 mL of warmed thawing medium was transferred to a sterile 50 mL conical tube. The hepatocyte vial was removed from the liquid nitrogen Dewar, and gently thawed in a water bath at 37° C. for 1-2 minutes, then the contents of the vial were emptied into a conical tube with prewarmed InvitroGRO HT medium. 1 mL of prewarmed InvitroGRO HT medium was added to each emptied hepatocyte vial to resuspend any remaining cells, and the contents were pipetted into the hepatocyte suspension. The tube containing the hepatocyte suspension was centrifuged at 50*g for 5 minutes. The supernatant was removed carefully, and the remaining pellet was resuspended by adding 1 mL of incubation media, InvitroGRO KHB, and gently shaking until there were no clumps.
Cell viability was determined using the trypan blue method. 25 μL of hepatocyte cell suspension was added to a trypan blue (TB) solution (containing 775 μL InvitroGRO KHB and 200 μL of Trypan Blue). Cell count was taken using a hemacytometer.
For mouse hepatocytes, 200 μL of hepatocytes (0.8×10^6 cells/mL) were added to the wells of a 48 well plate (Catalog No. 92048, TPP Techno Plastic Products AG, Trasadingen, Switzerland) and pre-incubated for 30 minutes at 37° C. For rat, dog, monkey, […], 200 μL of hepatocytes (2×10^6 cells/mL) were added to the wells of a 48 well plate (Catalog No. 92048, TPP Techno Plastic Products AG, Trasadingen, Switzerland) and pre-incubated for 30 minutes at 37° C.
For all species of hepatocytes, once the pre-incubation period was complete, 200 μL of 2 μM working stock of test compound was added to the wells of the plate, and the plate was vortexed on a Vibramax™ 100 (P/N 544-21200-00, Heidolph Instruments GmbH & Co. KG, Schwabach, Germany) at 500 rpm in a 37° C. CO2 incubator (Model No. 51026280, ThermoFisher Scientific, Waltham, MA, USA). At each time point of 0, 15, 30, 60, 90, and 120 minutes, 50 μL of incubation mixture was precipitated with 200 μL of acetonitrile containing internal standard.
At the end of the experiment, the samples were centrifuged at 4000 rpm for 10 minutes. The supernatant was collected and diluted with an equal amount of water, and vortexed for 5 minutes at 900 rpm in MixMate® (Model No. 5353, Eppendorf SE, Hamburg, Germany).
The supernatant samples were submitted for LC-MS/MS analysis.
Calculations of the results included the following: […]

[2] = Hygroscopicity by DVS at 25° C.; format: physicochemical; settings: for water uptake: DVS 25° C.
Protocol: Hygroscopicity of Form A and Form N was investigated by DVS at 25° C. […] Form A converted to Form K after the DVS test. Form K is a metastable hydrate. It reverted back to Form A after exposure to ambient condition.
Hygroscopicity of the free base Pattern A* and the urea cocrystal Form P were evaluated by DVS at 25° C.

physchem = settings: 37 °C, thermodynamic from solid
[3] = pH 6.5
[4] = Bulk stability study (1 week stress conditions; drying); settings: one week
[5] = Variable temperature XRPD (VT-XRPD) experiments; format: physicochemical
Protocol: To investigate form conversion behavior, variable temperature XRPD experiments were conducted for hydrate Pattern A, hydrate Pattern C, hydrate Pattern F and hetero-solvate Pattern L.
Based on DSC and TGA results, variable temperature XRPD was conducted for Pattern A, at different temperatures, including 25° C., 110° C. and 25° C.
Based on DSC and TGA results, variable temperature XRPD was conducted for Pattern B, at different temperatures, including 25° C., 80° C., 130° C. and 25° C. The sample after heating-cooling was placed at 25° C./75% RH condition for 1 day and investigated by XRPD.
Based on DSC and TGA results, variable temperature XRPD was conducted for Pattern C, at different temperatures, including 25° C., 110° C. and 25° C.
Based on DSC and TGA results, variable temperature XRPD was conducted for Pattern F at different temperatures, including 25° C., 110° C. and 25° C. The sample after heating-cooling was placed at 25° C./75% RH condition for 1 day and investigated by XRPD.
Based on DSC and TGA results, variable temperature XRPD was conducted for Pattern L, at different temperatures, including 25° C., 100° C., 140° C., 180° C. and 25° C. The sample after heating-cooling was placed at 25° C./92% RH condition for 24 h and investigated by XRPD.

Photostability study = settings: 1.2 million lux-hrs at 25° C., open container
[6] = Solubility study in aqueous media at 37° C.
[7] = Variable humidity XRPD (VH-XRPD) experiments; format: physicochemical
Protocol: Based on DVS results, variable humidity XRPD was conducted for Pattern A at different humidity conditions, including 40%, 70%, 90%, 70%, 40%, 20%, 0%, 40% RH conditions.
Based on DVS results, variable humidity XRPD was conducted for Pattern N, at different humidity conditions, including 40%, 70%, 90%, 70%, 40%, 20%, 0%, 40% RH conditions.

[8] = pH 4.5, 50 mM acetate buffer, 24 h

CC(C)NCC(O)COc1cccc2ccccc12 (stereo not shown) [Propranolol, reference compound]
half-life at 1 µM [1]: 16.3 min

COc1cc(-c2cn(C)c(=O)c(C)c2C)cc(OC)c1CN1CC[C@H](N2CCN(c3ccc(N[C@H]4CCC(=O)NC4=O)cc3F)CC2)C(F)(F)C1 [Form P]
water uptake ([2]; 95% RH): 3.1% | water uptake ([2]; below 90% RH): 1.6% | Solubility (physchem; pH 1, simulated gastric fluid): > 2000 µg/mL | Solubility (physchem; pH 1.8, simulated gastric fluid): > 2000 µg/mL | Solubility (physchem; pH 4.5, aqueous buffer): 100 to 300 µg/mL (≈ 141 to 422 µM) | Solubility (physchem; pH 5, fessif): 100 to 300 µg/mL (≈ 141 to 422 µM) | Solubility [3]: low solubility (close to LOQ)

COc1cc(-c2cn(C)c(=O)c(C)c2C)cc(OC)c1CN1CC[C@H](N2CCN(c3ccc(N[C@H]4CCC(=O)NC4=O)cc3F)CC2)C(F)(F)C1 [Pattern A*]
chemical stability ([4]; 25° C./92% RH open, 40° C./75% RH open, 60° C. tight container): good chemical stability | physical stability ([4]; 25° C./92% RH, open container): agglomeration | physical stability ([4]; 40° C./75% RH, open container): physically stable | physical stability ([4]; 60° C., tight container): crystallinity decrease | water uptake from 40% RH to 95% RH ([2]; DVS): 6.0% water uptake from | water uptake ([2]; 95% RH): about 6.0% | 1st desorp. (%) ([2]; DVS, 0% RH): 0.0% | 2nd sorp. (%) ([2]; DVS, 0% RH): 0.0% | 1st desorp. (%) ([2]; DVS, 10% RH): 1.1% | 2nd sorp. (%) ([2]; DVS, 10% RH): 1.0% | 1st desorp. (%) ([2]; DVS, 20% RH): 1.8% | 2nd sorp. (%) ([2]; DVS, 20% RH): 1.5% | 1st desorp. (%) ([2]; DVS, 30% RH): 4.5% | 2nd sorp. (%) ([2]; DVS, 30% RH): 2.1% | 1st desorp. (%) ([2]; DVS, 40% RH): 6.3% | 1st sorp. (%) ([2]; DVS, 40% RH): 4.6% | 2nd desorp. (%) ([2]; DVS, 40% RH): 6.6% | 2nd sorp. (%) ([2]; DVS, 40% RH): 3.6% | 1st desorp. (%) ([2]; DVS, 50% RH): 8.5% | 1st sorp. (%) ([2]; DVS, 50% RH): 5.2% | 2nd desorp. (%) ([2]; DVS, 50% RH): 8.5% | 2nd sorp. (%) ([2]; DVS, 50% RH): 5.8% | 1st desorp. (%) ([2]; DVS, 60% RH): 9.4% | 1st sorp. (%) ([2]; DVS, 60% RH): 6.9% | 2nd desorp. (%) ([2]; DVS, 60% RH): 9.4% | 2nd sorp. (%) ([2]; DVS, 60% RH): 7.7% | 1st desorp. (%) ([2]; DVS, 70% RH): 9.7% | 1st sorp. (%) ([2]; DVS, 70% RH): 9.1% | 2nd desorp. (%) ([2]; DVS, 70% RH): 9.7% | 2nd sorp. (%) ([2]; DVS, 70% RH): 9.3% | 1st desorp. (%) ([2]; DVS, 80% RH): 1.0% | 1st sorp. (%) ([2]; DVS, 80% RH): 9.8% | 2nd desorp. (%) ([2]; DVS, 80% RH): 10.0% | 2nd sorp. (%) ([2]; DVS, 80% RH): 9.8% | 1st desorp. (%) ([2]; DVS, 90% RH): 10.3% | 1st sorp. (%) ([2]; DVS, 90% RH): 10.3% | 2nd desorp. (%) ([2]; DVS, 90% RH): 10.3% | 2nd sorp. (%) ([2]; DVS, 90% RH): 10.2% | 1st desorp. (%) ([2]; DVS, 95% RH): 10.6% | 1st sorp. (%) ([2]; DVS, 95% RH): 10.6% | 2nd desorp. (%) ([2]; DVS, 95% RH): 10.5% | 2nd sorp. (%) ([2]; DVS, 95% RH): 10.5% | XRPD ([5]; 25° C. (start)): Pattern A | XRPD ([5]; 25° C./50% RH hold 2 h): Pattern A | XRPD ([5]; Cool to 25° C.): Metastable Pattern J | XRPD ([5]; Heat to 110° C.): Metastable Pattern J | degradation after exposure to light (Photostability study): ~1% | Solubility ([6]; FaSSIF-v1 (pH 6.5)): low solubility (close to LOQ) | pH ([6]; FaSSIF-v1, pH 6.5, 2 h): pH: 6.5 | Solubility ([6]; FaSSIF-v1, pH 6.5, 2 h, target 10 mg/5 mL, LOQ: 50 μg/mL): <LOQ | XRPD of residual solids ([6]; FaSSIF-v1, pH 6.5, 24 h): No form change | pH ([6]; FaSSIF-v1, pH 6.5, 24 h): pH: 6.5 | Solubility ([6]; FaSSIF-v1, pH 6.5, 24 h, target 10 mg/5 mL, LOQ: 50 μg/mL): 80 µg/mL (≈ 113 µM) | pH ([6]; FeSSIF-v1, pH 5.0, 2 h): pH: 5.0 | Solubility ([6]; FeSSIF-v1, pH 5.0, 2 h, target 10 mg/5 mL, LOQ: 50 μg/mL): 170 µg/mL (≈ 239 µM) | pH ([6]; FeSSIF-v1, pH 5.0, 24 h): pH: 5.0 | Solubility ([6]; FeSSIF-v1, pH 5.0, 24 h, target 10 mg/5 mL, LOQ: 50 μg/mL): 210 µg/mL (≈ 295 µM) | pH ([6]; SGF, pH 1.8, 2 h): pH: 2.4 | Solubility ([6]; SGF, pH 1.8, 2 h, target 10 mg/5 mL, LOQ: 50 μg/mL): >2000 µg/mL | pH ([6]; SGF, pH 1.8, 24 h): pH: 2.4 | Solubility ([6]; SGF, pH 1.8, 24 h, target 10 mg/5 mL, LOQ: 50 μg/mL): >2000 µg/mL | pH ([6]; pH 1.0 (0.1N HCl), 2 h): pH: 1.0 | Solubility ([6]; pH 1.0 (0.1N HCl), 2 h, target 10 mg/5 mL, LOQ: 50 μg/mL): >2000 µg/mL | pH ([6]; pH 1.0 (0.1N HCl), 24 h): pH: 1.0 | Solubility ([6]; pH 1.0 (0.1N HCl), 24 h, target 10 mg/5 mL, LOQ: 50 μg/mL): >2000 µg/mL | pH ([6]; pH 4.5, 50 mM acetate buffer, 2 h): pH: 4.5 | Solubility ([6]; pH 4.5, 50 mM acetate buffer, 2 h, target 10 mg/5 mL, LOQ: 50 μg/mL): 260 µg/mL (≈ 366 µM) | XRPD of residual solids [6, 8]: No form change | pH [6, 8]: pH: 4.5 | Solubility ([6]; pH 4.5, 50 mM acetate buffer, 24 h, target 10 mg/5 mL, LOQ: 50 μg/mL): 120 µg/mL (≈ 169 µM) | XRPD ([7]; 0% RH): Pattern J | XRPD ([7]; 0% RH hold 6 h): Pattern J | XRPD ([7]; 0% RH hold 2 days): Pattern J | XRPD ([7]; 20% RH): Pattern A | XRPD ([7]; 40% RH (after 90% RH, falling)): Pattern A | XRPD ([7]; 40% RH (first step)): Pattern A | XRPD ([7]; 40% RH (last step, after 0% RH)): Pattern A | XRPD ([7]; 70% RH (after 90% RH)): Metastable Pattern K | XRPD ([7]; 70% RH (humidity rising)): Metastable Pattern K | XRPD ([7]; 90% RH): Metastable Pattern K
